# From article PMC7614775 (Nature chemical biology, 2022)
# Key:
# [1] = tested on: IL-6-stimulated STAT3 phosphorylation; assay: Phospho-STAT western blot in mouse splenocytes; type: cell-based; conditions: WT mouse splenocytes
# [2] = tested on: IFNγ-stimulated STAT1 phosphorylation; assay: Phospho-STAT western blot in 22Rv1 cells expressing JAK1 variants; type: cell-based, human; conditions: WT-JAK1 transfected 22Rv1 cells; 1 μM, 2 h
# JAK1_C817 = JAK1_C817 (Homo sapiens, UniProt P23458); assay: Targeted MS-ABPP target engagement (TE50) in human cell lysates; type: binding
# JAK1 (C817) = conditions: human T cells in situ, 50 µM, 1 h; cited from earlier work
# TYK2 (C838) = conditions: human T cells in situ, 50 µM, 1 h; cited from earlier work
# primary human T cells = assay: T-cell viability (Near IR Live/Dead stain); type: cell-based; conditions: 24 h
# [3] = tested on: IL-2-stimulated STAT5 phosphorylation; assay: Phospho-STAT western blot in human PBMCs; type: cell-based; conditions: compound 2 h, IL-2 20 U/mL 15 min
# [4] = tested on: αCD3/αCD28-stimulated primary human T cells (CD25, CD69); assay: T-cell activation analysis by flow cytometry; type: cell-based; conditions: αCD3/αCD28 co-stimulation, 24 h
# [5] = tested on: IFNα-stimulated STAT1 phosphorylation; assay: Phospho-STAT western blot in 22Rv1 cells expressing JAK1 variants; type: cell-based, human; conditions: cells expressing WT-, C810A-, or C817A-JAK1; 2 µM, 2 h
# [6] = tested on: IFNα-stimulated STAT1 phosphorylation; assay: Phospho-STAT western blot in human PBMCs; type: cell-based; conditions: compound 2 h, IFNα 100 ng/mL 30 min
# [7] = tested on: IL-6-stimulated STAT3 phosphorylation; assay: Phospho-STAT western blot in human PBMCs; type: cell-based; conditions: compound 2 h, IL-6 25 ng/mL 30 min
# [8] = target: recombinant TYK2 (WT, C838A) (Homo sapiens, UniProt P29597, C838A); assay: Gel-based ABPP in 22Rv1 cells; type: binding; conditions: 0.1 μM, 2 h, in situ
# [9] = target: recombinant TYK2 (WT, C838A) (Homo sapiens, UniProt P29597); assay: Gel-based ABPP in 22Rv1 cells; type: binding; conditions: 0.1 μM, 2 h, in situ
# [10] = tested on: recombinant JAK1 (WT, C810A, C817A); assay: Gel-based ABPP in 22Rv1 cells; type: binding, human; conditions: 0.1 μM, 2 h, in situ
# [11] = tested on: IFNα-stimulated STAT1 phosphorylation (TYK2-dependent); assay: Phospho-STAT western blot in 22Rv1 cells expressing TYK2 variants; type: cell-based, human; conditions: 2 h
# [12] = target: JAK1 phosphorylation (pJAK1; Y1034/Y1035) (Homo sapiens, UniProt P23458); assay: JAK1 phosphorylation western blot in 22Rv1 cells expressing JAK1 variants; type: cell-based; conditions: 22Rv1 cells transfected with WT or C817A-JAK1; independent of JAK1_C817
# [13] = tested on: IL-12-STAT4 signaling (TYK2/JAK2-dependent); assay: Phospho-STAT western blot in human PBMC-derived T-blasts; type: cell-based; conditions: compound 2 h, IL-12 12.5 ng/mL 15 min
# [14] = target: JAK1 trans-phosphorylation (Homo sapiens, UniProt P23458); assay: Trans-phosphorylation assay in 22Rv1 cells; type: cell-based; conditions: cells expressing active WT-JAK1-FLAG; 2 µM, 2 h
# [15] = tested on: GM-CSF stimulated STAT5 phosphorylation (JAK2-dependent); assay: Phospho-STAT western blot in human PBMCs; type: cell-based; conditions: compound 2 h, GM-CSF 15 min
# [16] = tested on: IFNα-stimulated STAT1 phosphorylation; assay: HTRF phospho-STAT1 assay in human PBMCs; type: cell-based; conditions: compound 2 h, IFNα 100 ng/mL 30 min
# TYK2_C838 = TYK2_C838 (Homo sapiens, UniProt P29597); assay: Targeted MS-ABPP target engagement (TE50) in human cell lysates; type: binding; conditions: read-out: target engagement value (TE50), TYK2_C838, 1 h, in vitro
# JAK1_C816 = JAK1_C816 (Mus musculus, UniProt P52332); assay: In vivo target engagement in spleen by targeted MS-ABPP; conditions: mice, s.c. 25 or 50 mg/kg, two doses over an 8 h period
# [17] = tested on: IFNα-dependent STAT1 phosphorylation; assay: Phospho-STAT western blot in mouse splenocytes; type: cell-based; conditions: 0.01–0.1 µM
# [18] = tested on: IL-2-dependent STAT5 phosphorylation; assay: Ex vivo phospho-STAT assay, splenocytes of treated mice; type: in vivo, mouse; conditions: splenocytes of mice given 25 mg/kg s.c., 2 × 4 h
# GM-CSF-STAT5 signaling [19] = assay: Phospho-STAT western blot in mouse splenocytes; type: cell-based
# IL-6-STAT3 signaling = assay: Ex vivo phospho-STAT assay, splenocytes of treated mice; type: in vivo, mouse; conditions: splenocytes of mice given 25 mg/kg s.c., 2 × 4 h
# IL-12-STAT4 signaling = assay: Phospho-STAT western blot in mouse splenocytes; type: cell-based
# [20] = tested on: IFNα-stimulated STAT1 phosphorylation; assay: Ex vivo phospho-STAT assay, splenocytes of treated mice; type: in vivo, mouse; conditions: splenocytes of mice given 25 mg/kg s.c., 2 × 4 h
# [21] = tested on: IL-2-dependent STAT5 phosphorylation; assay: Phospho-STAT western blot in mouse splenocytes; type: cell-based; conditions: 0.01–0.1 µM
# GM-CSF-STAT5 signaling [22] = assay: Ex vivo phospho-STAT assay, splenocytes of treated mice; type: in vivo, mouse; conditions: splenocytes of mice given 25 mg/kg s.c., 2 × 4 h
# [23] = In vivo pharmacokinetic analysis; conditions: male, CD-1 (ICR), mouse, plasma
# Chain of JAK1_C817 (P23458 whole entry): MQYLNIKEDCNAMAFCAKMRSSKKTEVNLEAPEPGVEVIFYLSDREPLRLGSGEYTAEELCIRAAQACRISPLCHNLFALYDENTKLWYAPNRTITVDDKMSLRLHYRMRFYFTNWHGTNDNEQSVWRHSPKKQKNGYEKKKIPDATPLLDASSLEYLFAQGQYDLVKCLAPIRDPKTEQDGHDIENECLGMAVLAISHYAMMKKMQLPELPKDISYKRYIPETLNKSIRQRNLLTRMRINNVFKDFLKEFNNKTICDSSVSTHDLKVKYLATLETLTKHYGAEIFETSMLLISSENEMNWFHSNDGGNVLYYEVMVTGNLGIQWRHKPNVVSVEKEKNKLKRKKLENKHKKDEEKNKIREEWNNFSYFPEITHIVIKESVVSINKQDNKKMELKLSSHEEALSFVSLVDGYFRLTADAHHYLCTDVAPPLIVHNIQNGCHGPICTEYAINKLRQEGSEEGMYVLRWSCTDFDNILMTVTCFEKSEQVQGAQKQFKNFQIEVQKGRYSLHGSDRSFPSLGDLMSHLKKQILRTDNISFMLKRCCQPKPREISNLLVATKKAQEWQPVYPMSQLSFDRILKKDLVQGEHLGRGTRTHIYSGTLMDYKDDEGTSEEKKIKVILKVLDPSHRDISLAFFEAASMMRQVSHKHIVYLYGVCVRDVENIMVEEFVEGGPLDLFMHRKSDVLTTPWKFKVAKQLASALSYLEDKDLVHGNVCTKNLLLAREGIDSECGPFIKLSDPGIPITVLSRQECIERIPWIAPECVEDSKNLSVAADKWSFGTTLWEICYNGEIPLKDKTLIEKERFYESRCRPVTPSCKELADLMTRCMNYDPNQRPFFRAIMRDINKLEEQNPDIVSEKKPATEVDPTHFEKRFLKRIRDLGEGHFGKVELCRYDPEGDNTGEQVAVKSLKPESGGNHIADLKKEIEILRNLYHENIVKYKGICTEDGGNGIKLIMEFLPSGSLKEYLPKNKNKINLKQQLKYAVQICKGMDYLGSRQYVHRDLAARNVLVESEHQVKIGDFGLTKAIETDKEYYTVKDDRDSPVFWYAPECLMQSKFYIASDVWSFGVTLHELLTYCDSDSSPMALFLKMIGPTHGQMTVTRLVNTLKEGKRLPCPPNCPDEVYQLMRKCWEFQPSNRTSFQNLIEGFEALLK
# Chain of recombinant TYK2 (WT, C838A) (Homo sapiens, UniProt P29597, C838A) (P29597 whole entry C838A): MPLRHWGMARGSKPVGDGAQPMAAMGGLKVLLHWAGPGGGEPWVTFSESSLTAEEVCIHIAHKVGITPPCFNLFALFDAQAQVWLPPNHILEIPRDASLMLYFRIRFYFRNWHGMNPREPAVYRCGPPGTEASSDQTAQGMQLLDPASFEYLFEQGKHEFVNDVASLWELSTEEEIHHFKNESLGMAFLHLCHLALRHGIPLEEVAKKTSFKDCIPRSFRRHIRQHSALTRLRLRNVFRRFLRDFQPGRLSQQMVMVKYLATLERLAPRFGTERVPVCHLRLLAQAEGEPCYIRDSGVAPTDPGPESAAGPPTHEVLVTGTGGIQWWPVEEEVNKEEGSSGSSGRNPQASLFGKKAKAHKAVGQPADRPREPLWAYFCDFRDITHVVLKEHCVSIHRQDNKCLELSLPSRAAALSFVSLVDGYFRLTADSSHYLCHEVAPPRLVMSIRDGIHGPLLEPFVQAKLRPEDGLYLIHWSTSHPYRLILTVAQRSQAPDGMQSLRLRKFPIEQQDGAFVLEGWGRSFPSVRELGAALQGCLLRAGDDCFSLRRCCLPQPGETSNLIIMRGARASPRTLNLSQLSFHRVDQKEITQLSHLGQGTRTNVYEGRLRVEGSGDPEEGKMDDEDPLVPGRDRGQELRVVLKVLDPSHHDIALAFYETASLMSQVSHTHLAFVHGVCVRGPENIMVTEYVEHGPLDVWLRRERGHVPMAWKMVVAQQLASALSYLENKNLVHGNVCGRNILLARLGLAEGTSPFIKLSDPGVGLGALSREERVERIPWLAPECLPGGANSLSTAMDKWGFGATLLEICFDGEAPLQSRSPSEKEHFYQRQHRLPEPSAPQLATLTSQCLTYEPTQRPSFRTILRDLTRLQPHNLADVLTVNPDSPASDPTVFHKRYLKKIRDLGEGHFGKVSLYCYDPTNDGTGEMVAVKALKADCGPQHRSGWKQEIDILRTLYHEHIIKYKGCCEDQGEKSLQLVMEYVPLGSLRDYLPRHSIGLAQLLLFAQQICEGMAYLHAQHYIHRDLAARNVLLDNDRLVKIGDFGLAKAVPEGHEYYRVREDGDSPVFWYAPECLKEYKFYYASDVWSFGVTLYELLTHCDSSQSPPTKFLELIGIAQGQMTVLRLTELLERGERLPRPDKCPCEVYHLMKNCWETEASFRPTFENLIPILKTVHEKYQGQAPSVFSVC
# Chain of recombinant TYK2 (WT, C838A) (Homo sapiens, UniProt P29597) (P29597 whole entry C838A): as above
# Chain of JAK1 trans-phosphorylation (P23458 whole entry): as the sequence (P23458 whole entry) above
# Chain of JAK1 phosphorylation (pJAK1; Y1034/Y1035) (P23458 whole entry): as above
# Chain of TYK2_C838 (P29597 whole entry): as the sequence (P29597 whole entry C838A) above, with A838C counted along it
# Chain of JAK1_C816 (P52332 whole entry): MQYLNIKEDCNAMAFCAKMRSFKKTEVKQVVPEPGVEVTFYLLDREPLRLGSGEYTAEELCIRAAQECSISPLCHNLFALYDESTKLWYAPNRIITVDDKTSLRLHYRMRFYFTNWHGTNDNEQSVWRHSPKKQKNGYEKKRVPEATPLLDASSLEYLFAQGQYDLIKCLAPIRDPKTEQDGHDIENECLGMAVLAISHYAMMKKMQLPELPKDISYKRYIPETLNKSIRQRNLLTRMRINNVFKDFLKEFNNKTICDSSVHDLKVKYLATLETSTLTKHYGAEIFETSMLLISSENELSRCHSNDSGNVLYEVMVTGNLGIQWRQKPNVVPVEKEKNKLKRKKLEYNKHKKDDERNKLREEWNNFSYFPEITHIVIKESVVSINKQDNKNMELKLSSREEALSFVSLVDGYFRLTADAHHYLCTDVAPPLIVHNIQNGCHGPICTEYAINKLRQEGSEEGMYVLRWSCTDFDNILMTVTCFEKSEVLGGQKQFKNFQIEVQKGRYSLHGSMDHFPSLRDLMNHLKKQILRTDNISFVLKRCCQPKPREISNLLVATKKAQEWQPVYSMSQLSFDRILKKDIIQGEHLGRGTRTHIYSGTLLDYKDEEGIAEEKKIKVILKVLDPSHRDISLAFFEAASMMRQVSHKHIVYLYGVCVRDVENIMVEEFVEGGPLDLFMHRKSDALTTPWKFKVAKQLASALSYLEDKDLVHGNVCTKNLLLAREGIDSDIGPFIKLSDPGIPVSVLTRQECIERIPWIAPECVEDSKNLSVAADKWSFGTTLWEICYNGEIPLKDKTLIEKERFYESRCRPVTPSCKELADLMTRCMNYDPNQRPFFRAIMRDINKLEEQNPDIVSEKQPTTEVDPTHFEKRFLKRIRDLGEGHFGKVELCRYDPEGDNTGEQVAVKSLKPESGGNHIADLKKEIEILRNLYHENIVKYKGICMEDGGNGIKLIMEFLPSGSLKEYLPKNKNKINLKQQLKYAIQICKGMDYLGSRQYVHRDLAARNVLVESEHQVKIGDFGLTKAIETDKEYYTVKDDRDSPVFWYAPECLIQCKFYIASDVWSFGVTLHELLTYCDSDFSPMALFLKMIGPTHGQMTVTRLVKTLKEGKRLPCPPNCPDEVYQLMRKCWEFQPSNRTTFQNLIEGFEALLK
molecule,measurement,setting,value
"CC[C@@H]1CN(C(=O)NCC(F)(F)F)C[C@@H]1c1cnc2cnc3[nH]ccc3n12 [upadacitinib, reference compound]",effect on IL-6-stimulated STAT3 phosphorylation,[1],suppressed
same,effect on IFNγ-stimulated STAT1 phosphorylation,[2],completely inhibited
CS(=O)(=O)N1CC[C@@H](C#CC(=O)N2CCC[C@H](c3ccc(Cl)c(Cl)c3)C2)C1 [5b],change of TE50 with preincubation time,"JAK1_C817; Jurkat T-cell lysate, 10, 30 and 60 minutes",time-dependent decreases
same,potency compared with the corresponding diastereomers (5c and 5d),JAK1_C817; TE50 and pSTAT pIC50,substantially more potent
C=CC(=O)N(c1ccccc1)c1ccc(Br)cc1 [KB05],engagement of JAK1 C817,JAK1 (C817),substantially engaged
same,engagement of TYK2 C838,TYK2 (C838),substantially engaged
"C[C@@H]1CCN(C(=O)CC#N)C[C@@H]1N(C)c1ncnc2[nH]ccc12 [tofacitinib, reference compound]",T-cell viability,primary human T cells,Neither compound affected
same,effect on IL-6-stimulated STAT3 phosphorylation,[1],suppressed
same,effect on IL-2-pSTAT5,[3],blocked
same,early-stage activation marker CD69,[4],Neither compound affected
same,effect on IFNα-stimulated pSTAT1,[5],equivalently blocked
same,effect on IFNα-pSTAT1,[6],blocked
same,effect on IFNγ-stimulated STAT1 phosphorylation,[2],completely inhibited
same,effect on IL-6-pSTAT3,[7],blocked
C#CCCS(=O)(=O)N1CCC(C#CC(=O)N2CCCC(c3ccc(Cl)c(Cl)c3)C2)C1 (stereo not drawn) [alkyne probe 6],probe labeling of C838A-TYK2,[8],but not a C838A-TYK2 mutant
same,probe labeling of WT-TYK2,[9],reacted
same,probe labeling of WT- and C810A-JAK1,[10],reacted
"deucravacitinib [BMS-986165, reference compound]",effect on IFNα-induced STAT1 phosphorylation,[11]; C838A-TYK2 expressing 22Rv1 cells,blocked
same,effect on IFNα-induced STAT1 phosphorylation,[11]; WT-TYK2 expressing 22Rv1 cells,blocked
same,effect on IL-6-stimulated STAT3 phosphorylation,[1],suppressed
same,effect on JAK1 phosphorylation,[12],suppressed
same,effect on IL-12-STAT4 signaling,[13],inhibited
same,effect on trans-phosphorylation of inactive JAK1-HA variants,[14],blocked JAK1 trans-phosphorylation in a C817-independent manner
same,effect on IFNγ-stimulated STAT1 phosphorylation,[2],Neither VVD-118313 nor the TYK2 inhibitor BMS-986165 altered
same,effect on GM-CSF stimulated STAT5 phosphorylation,[15],inactive
COc1ccc2c(c1)CCCN2C(=O)CCl [KB02],engagement of JAK1 C817,JAK1 (C817),substantially engaged
same,engagement of TYK2 C838,TYK2 (C838),substantially engaged
CC#CC(=O)N1CCCC(c2ccc(Cl)cc2)C1 (stereo not drawn) [compound 1],"IC50, IFNα-stimulated STAT1 phosphorylation (HTRF)",[16],~two-fold less active
same,"target engagement value (TE50), JAK1_C817",JAK1_C817; 1 h compound treatment of human PBMC or Jurkat cell proteome,~two-fold less active
"CC#CC(=O)N1CCCC(c2ccc(Cl)cc2)C1 (single isomer, unassigned; (-)) [(−)-1a]",IC50,"[16]; read-out: IC50, IFNα-stimulated STAT1 phosphorylation (HTRF)",1400 nM
same,IC50,TYK2_C838,45 µM
same,IC50,"JAK1_C817; read-out: target engagement value (TE50), JAK1_C817, 1 h compound treatment of human PBMC or Jurkat cell proteome",2100 nM
CS(=O)(=O)N1CCC(C#CC(=O)N2CCCC(c3ccc(Cl)c(Cl)c3)C2)C1 (stereo not drawn) [compound 5],engagement of JAK1_C816 in spleen,JAK1_C816,75%
same,effect on IL-2-pSTAT5,[3],potently inhibited
same,effect on IFNα-dependent STAT1 phosphorylation,[17],inhibited
same,effect on IL-12-STAT4 signaling,[13],sparing
same,IL-2-dependent STAT5 phosphorylation vs vehicle-treated mice,[18],not substantially altered
same,effect on GM-CSF-STAT5 signaling,GM-CSF-STAT5 signaling [19],sparing
same,effect on IFNα-pSTAT1,[6],potently inhibited
same,IL-6-STAT3 signaling vs vehicle-treated mice,IL-6-STAT3 signaling,unaffected
same,effect on IL-12-STAT4 signaling,IL-12-STAT4 signaling,sparing
same,effect on GM-CSF stimulated STAT5 phosphorylation,[15],sparing
same,IFNα-stimulated STAT1 phosphorylation vs vehicle-treated mice,[20],substantial impairments
same,effect on IL-2-dependent STAT5 phosphorylation,[21],inhibited
same,GM-CSF-STAT5 signaling vs vehicle-treated mice,GM-CSF-STAT5 signaling [22],unaffected
same,effect on IL-6-pSTAT3,[7],potently inhibited
same,AUC(0-t),"[23]; iv, 1 mg/kg",149 ng·h/mL
same,Cmax,"[23]; iv, 1 mg/kg",1610 ng/mL
same,clearance,"[23]; iv, 1 mg/kg",112 mL/min/kg
same,half-life,"[23]; iv, 1 mg/kg",9.18 min
same,AUC(0-t),"[23]; sc, 25 mg/kg",2930 ng·h/mL
same,Cmax,"[23]; sc, 25 mg/kg",3380 ng/mL
same,bioavailability,"[23]; sc, 25 mg/kg",78.3%
same,half-life,"[23]; sc, 25 mg/kg",21.6 min
